Experimental data as given in patent publication US12661361B2, “Resmetirom for reducing liver volume” (Madrigal Pharmaceuticals, Inc., priority 2021, dated 2026).

Legend:
Type in all cases: in vivo, human
[1] = test system: noninvasively identified NASH patients; assay: MAESTRO-NAFLD-1 52 week Phase 3, 100 mg open label (OL) non-cirrhotic NASH arm
Description: MAESTRO-NASH NCT03900429 and MAESTRO-NAFLD-1 NCT04197479 are 52 week Phase 3 registrational double blind placebo controlled clinical trials to study the effect of resmetirom in more than 2,000 NASH patients. A goal of MAESTRO-NAFLD-1, a 1,200 patient “real life” NASH study is to identify non-invasive markers that correlate with patient response to resmetirom treatment. The 169 patient, 100 mg open label (OL) arm completed the 52 week study in July 2021.
Eligibility required at least 3 metabolic risk factors (Metabolic syndrome), fibroscan kilopascals (kPa) consistent with ≥F1 fibrosis stage, and MRI-PDFF≥8%. The primary and key secondary endpoints of MAESTRO-NAFLD-1 including safety, relative percent reduction of MRI-PDFF (week 16), LDL cholesterol (LDL-C) (week 24), apolipoprotein B and triglycerides, fibroscan and 52 week endpoints were analyzed in the OL arm.

[2] = test system: well-compensated NASH cirrhotic patients; assay: MAESTRO-NAFLD-1 open label resmetirom arm in well-compensated NASH cirrhotic patients
Description: (§1) MRI-PDFF and liver volume (LV) were assessed in, (n=117), and a NASH-cirrhotic active resmetirom treatment arm of MAESTRO-NAFLD-1 (n=73), in patients who had at least baseline and one additional serial PDFF. LV was assessed using a validated artificial intelligence model for segmenting the liver on standard MR images.
MAESTRO-NAFLD-1 is a 52-week >1200 patient Phase 3 randomized double blind placebo controlled NASH clinical trial to study safety and biomarker effects of resmetirom, a selective thyroid hormone receptor beta agonist, in NASH patients with F1-F4 fibrosis identified using non-invasive biomarkers and imaging (NCT04197479). A goal of this “real life” NASH study is to identify non-invasive markers that correlate with individual patient response to resmetirom treatment. The study includes an open label active resmetirom treatment arm in well-compensated NASH cirrhotic patients.
Eligibility required at least 3 metabolic risk factors (metabolic syndrome), and NASH cirrhosis diagnosed on liver biopsy or according to accepted criteria. The primary and key secondary end points of the cirrhotic arm include safety, relative percent reduction of MRI-PDFF (week 16), LDL cholesterol (LDL-C) (week 24), Apolipoprotein B and triglycerides, and markers of fibrosis. Patients received 80-100 mg daily dose of resmetirom for 52 weeks.
105 well-compensated NASH cirrhotic patients were enrolled in the open label arm, 2/3 confirmed by liver biopsy. Demographics include mean age 62.7 (9.0 (SD)), female 64%, BMI 35.4 (7.4), diabetes 70%, hypertension 77%, dyslipidemia >70%, mean ASCVD score 16.1%, hypothyroid 32.4%, 51% on statins. MRE kPa, 5.7 (2.1); fibroscan kPa, 24.6 (14.9), CAP, 318 (59) and mean MRI-PDFF, 8.1% (5). Stage of cirrhosis was inversely correlated with baseline PDFF. At week 52 resmetirom lowered fibroscan CAP (−42 units (p<0.0001) and kPa (−7.6 kPa, p=0.02).

[3] = test system: adults with biopsy-confirmed NASH (NAS≥4, F1-F3) and hepatic fat fraction ≥10%; assay: 36-week Phase 2 serial MRI-PDFF and liver biopsy study; MRI-PDFF and liver volume (LV) assessment
Description: Hepatomegaly may cause symptoms (e.g., pain) in NASH patients, and is thought to be driven primarily by high liver fat content. […] The purpose of this study was to assess the relationship between liver triglycerides as measured by MRI-PDFF and liver volume (LV) in placebo and resmetirom-treated patients.
as §1
LV at baseline was elevated in non-cirrhotic and cirrhotic NASH patients relative to literature values for healthy controls and was greater than predicted even after accounting for sex and body weight. PDFF correlated with LV at baseline in non-cirrhotic (r2=0.19, p<0.001) and more weakly in cirrhotic NASH (r2=0.079, p=0.01). Reduction in LV (CFB) correlated with reduction in PDFF in placebo (r2=0.25, p=0.001) and resmetirom (r2-0.38, p<0.0001) treated patients at 12 (and 36 (not shown)) weeks (see, e.g., FIG. 1).

[4] = cirrhotic NASH patients with PDFF≤5% at baseline, week 16

Compound: CC(C)c1cc(Oc2c(Cl)cc(-n3nc(C#N)c(=O)[nH]c3=O)cc2Cl)n[nH]c1=O [resmetirom, 2-(3,5-dichloro-4-((5-isopropyl-6-oxo-1,6-dihydropyridazin-3-yl)oxy)phenyl)-3,5-dioxo-2,3,4,5-tetrahydro-1,2,4-triazine-6-carbonitrile]
- ELF (inflammatory and fibrosis biomarker) ([1]; 100 mg OL arm): Significant reductions
- LV reduction relative to that predicted by % reduction in MRI-PDFF ([1]; 100 mg OL arm): 2-3 fold
- M30 (inflammatory and fibrosis biomarker) ([1]; 100 mg OL arm): Significant reductions
- adiponectin ([1]; 100 mg OL arm): increase
- reverse T3 (inflammatory and fibrosis biomarker) ([1]; 100 mg OL arm): Significant reductions
- LDL-C reduction ([1]; 100 mg OL arm, p<0.0001): −22%
- apolipoprotein-B reduction ([1]; 100 mg OL arm, p<0.0001): −24%
- triglycerides reduction ([1]; 100 mg OL arm, p<0.0001): −24%
- blood pressure (systolic, diastolic) reduction ([1]; 100 mg OL arm, p=0.02): ~2 mmHg
- patients with weight loss ≥5% ([1]; 100 mg OL arm, linked to resmetirom exposure (SHBG)): ~25%
- safety ([1]; 100 mg per day up to 52 weeks): No safety flags were identified
- liver volume (LV) reduction ([1]; 100 mg, week 52, p<0.0001): −23%
- bone mineral density (DEXA) ([1]; 52 weeks): unchanged
- fibroscan CAP change relative to baseline ([1]; week 52, p<0.0001): −39 (4.6)
- fibroscan VCTE change relative to baseline ([1]; week 52, p<0.0001): −1.87
- fibroscan VCTE percent change relative to baseline ([1]; week 52, p<0.0001): −20%
- MRE change relative to baseline ([1]; week 52, p=0.03): −0.34
- safety and tolerability ([2]; 80-100 mg daily up to 52 weeks): safe and well-tolerated
- fibroscan CAP change ([2]; 80-100 mg daily, week 52, p<0.0001): −42 units
- fibroscan kPa change ([2]; 80-100 mg daily, week 52, p=0.02): −7.6 kPa
- BP reduction ([2]; NASH cirrhotic arm): 4-5 mm
- LV mean % CFB [2, 4]: −16.3%
- PDFF mean % CFB [2, 4]: −2.5%
- ApoB reduction ([2]; independent of cirrhosis stage): 20%
- LDL-C reduction ([2]; independent of cirrhosis stage): 20%
- Lp (a) reduction ([2]; independent of cirrhosis stage): 30%
- triglycerides reduction ([2]; independent of cirrhosis stage): 21%
- GGT change ([2]; p=0.04): −27%
- PDFF lowered by ([2]; patients with baseline PDFF>5%, p<0.0057): 37%
- MRE lowered by ([2]; week 52): 0.68 kPa
- patients with MRE reduction of ≥15% ([2]; week 52): 34%
- patients with ≥15% reduction in LV ([2]; week 52, independent of baseline cirrhosis severity): 73%
- LV reduction ([3]; 12 weeks, p<0.0001 vs placebo): −18.6%
- liver fat reduction (MRI-PDFF) ([3]; 36-week Phase 2, compared with placebo, associated with NASH resolution on liver biopsy): statistically significant liver fat reduction
- LV reduction ([3]; 36 weeks, p<0.0001 vs placebo): −20.5%
- percentage of patients with ≥15% reduction in liver volume ([3]; Week 12, p<0.0001 vs placebo): 69.2%
- week 12 imaging response in patients who had NASH resolution and/or fibrosis reduction on biopsy at week 36 ([3]; all such resmetirom treated patients): PDFF reduction ≥30% and/or LV reduction of ≥15%
